Measured values as given in patent publication US12721828B2, “Pharmaceutical liquid composition, kit of parts comprising the pharmaceutical liquid composition, and method for preparing the pharmaceutical liquid composition” (MPERIUM B.V., priority 2019, dated 2026).
Where two headings read alike, the source gives them in different places.

Experiments:
[1] = 1.88 mmol/ml (350 mg/mL SPB) in an aqueous solution
[2] = 350 mg/ml, 6 hours, room temperature, Watson-Marlow 505-S pump, tube diameter 0.2 mm, rpm 50
Protocol: A 6 hour test has been performed wherein a SPB oplossing (350 mg/ml) was circulated at room temperature by a Watson-Marlow 505-S pump, tube diameter 0.2 mm, rpm 50. The pump settings correspond to an almost dropwise output. The speed was controlled to be low to simulate a worst case situation to signal blocking of the tube and/or crystallization of the SPB solution in the tube.

[3] = not given; remark: listed apart in the source

- behaviour during the dissolving process in purified water (SPB concentrations higher than 350 mg/ml): significant lumping
- pH of aqueous solution [1]: > 8
- blockage of the tube and crystallization of the SPB solution in the tube [2]: did not occur
- crystallization on storage ([3]; 500 mg/ml solution, clear glass bottles, 40° C.): crystallization after 1 week
Substance: Sodium Phenylbutyrate [SPB]
- dissolving in purified water (500 mg/ml): required to pre-heat (40° C.) the purified water to dissolve the SPB completely
- crystallization on storage ([3]; 450 mg/ml, 400 mg/ml and 350 mg/ml solutions, 2 weeks at 25° C., 40° C. and 5° C.): Only the SPB 500 mg/ml showed crystallization
